Experimental data from PMC3038857, “Using Nuclear Receptor Activity to Stratify Hepatocarcinogens” (PLoS ONE, 2011).
Where two headings read alike, the source gives them in different places.

Tests used:
Rat Liver [1] = conditions: ref ToxRefDB, cited from earlier work
Rat Liver [2] = conditions: ref ToxRefDB, cited from earlier work; remark: listed apart in the source
Rat Liver [3] = conditions: ref ToxRefDB, cited from earlier work; remark: listed apart in the source
Mouse Liver = conditions: liver, ref ToxRefDB, cited from earlier work
PXR (NR1I2) = molecular target: T1, PXR (NR1I2) (Homo sapiens, UniProt O75469); test: ATG_PXRE_CIS: Factorial reporter gene assay (HepG2); format: cell-based; design: endogenous in cells; host or cells: HepG2
T1 sequence (O75469 1-434): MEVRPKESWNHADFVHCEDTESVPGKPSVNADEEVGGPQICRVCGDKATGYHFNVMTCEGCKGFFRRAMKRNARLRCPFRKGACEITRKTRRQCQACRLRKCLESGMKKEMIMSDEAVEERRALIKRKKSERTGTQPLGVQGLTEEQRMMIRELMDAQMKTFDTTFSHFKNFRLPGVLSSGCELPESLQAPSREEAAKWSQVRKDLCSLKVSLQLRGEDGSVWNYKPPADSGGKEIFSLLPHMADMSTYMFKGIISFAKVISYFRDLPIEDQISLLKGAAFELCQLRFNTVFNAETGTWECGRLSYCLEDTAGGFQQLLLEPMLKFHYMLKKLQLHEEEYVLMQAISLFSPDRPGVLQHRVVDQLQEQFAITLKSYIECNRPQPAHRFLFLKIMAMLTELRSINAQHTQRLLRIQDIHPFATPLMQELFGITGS
Protocol: A multiple reporter transcription unit (MRTU) library consisting of 48 transcription factor binding sites was transfected into the HepG2 human liver hepatoma cell line. In addition to the cis-acting reporter genes (CIS), a modification of the approach was used to generate a trans-system (TRANS) with a mammalian one-hybrid assay consisting of an additional 25 MRTU library reporting the activity of nuclear receptor super-family members. […] These assays were performed by Attagene Inc. (Morrisville NC) under contract to EPA.
In addition to the cis-acting reporter genes (CIS), a modification of the approach was used to generate a trans-system (TRANS) with a mammalian one-hybrid assay consisting of an additional 25 MRTU library reporting the activity of nuclear receptor super-family members. […] Chemicals were then tested in the CIS and TRANS assays at seven concentrations starting at the MTC and followed by three-fold serial dilutions. These assays were performed by Attagene Inc. (Morrisville NC) under contract to EPA. Detailed description of the methods, data and analysis methods for this dataset will be presented in a separate publication.

[4] = rat chronic study, liver, any lesion, coded 6 / 0, code not explained in the table
[5] = rat chronic study, liver, preneoplastic lesion, coded 6 / 0, code not explained in the table
[6] = rat chronic study, liver, neoplastic lesion, coded 6 / 0, code not explained in the table
[7] = mouse chronic study, any lesion, coded 6 / Inf, code not explained in the table
[8] = rat chronic study, liver, coded 6 / 0, code not explained in table
[9] = mouse chronic study, coded 6 / Inf, code not explained in table

| SMILES | CHR_Rat_Liver_1_AnyLesion (Rat Liver [1]; [4]) | CHR_Rat_Liver_2_PreneoplasticLesion (Rat Liver [2]; [5]) | CHR_Rat_Liver_3_NeoplasticLesion (Rat Liver [3]; [6]) | CHR_Rat_Liver_1_AnyLesion (Rat Liver [1]; [8]) | CHR_Rat_Liver_2_PreneoplasticLesion (Rat Liver [2]; [8]) | CHR_Rat_Liver_3_NeoplasticLesion (Rat Liver [3]; [8]) | also measured |
| --- | --- | --- | --- | --- | --- | --- | --- |
| O=C(O)COc1ccc(Cl)cc1Cl [Dataset S3 row 2] | 6 | 0 | 0 | – | – | – | – |
| O=C(O)CCCOc1ccc(Cl)cc1Cl [Dataset S3 row 3] | 6 | 0 | 0 | – | – | – | CHR_Mouse_Liver_1_AnyLesion (Mouse Liver; [7]): 6 |
| C/C(=N\C#N)N(C)Cc1ccc(Cl)nc1 [Dataset S3 row 11] | 6 | 0 | 0 | – | – | – | CHR_Mouse_Liver_1_AnyLesion (Mouse Liver; [7]): 6 |
| CCOCN(C(=O)CCl)c1c(C)cccc1CC [Dataset S3 row 12] | 6 | 6 | 6 | – | – | – | – |
| CSC(=O)c1cccc2nnsc12 [Dataset S3 row 13] | 6 | 0 | 0 | – | – | – | CHR_Mouse_Liver_1_AnyLesion (Mouse Liver; [7]): 6 |
| CCc1cccc(CC)c1N(COC)C(=O)CCl [Dataset S3 row 15] | 6 | 0 | 0 | – | – | – | – |
| CNC(=O)ON=CC(C)(C)SC [Dataset S3 row 16] | 0 | 0 | 0 | – | – | – | – |
| CCNc1nc(NC(C)C)nc(SC)n1 [Dataset S3 row 17] | 6 | 6 | 6 | – | – | – | – |
| Clc1nc(Cl)nc(Nc2ccccc2Cl)n1 [Dataset S3 row 19] | 0 | 0 | 0 | – | – | – | – |
| COC(=O)NS(=O)(=O)c1ccc(N)cc1 [Dataset S3 row 20] | 0 | 0 | 0 | – | – | – | CHR_Mouse_Liver_1_AnyLesion (Mouse Liver; [7]): 6 |
| CCNc1nc(Cl)nc(NC(C)C)n1 [Dataset S3 row 21] | 0 | 0 | 0 | – | – | – | – |
| COC=C(C(=O)OC)c1ccccc1Oc1cc(Oc2ccccc2C#N)ncn1 [Dataset S3 row 24] | 6 | 6 | 0 | – | – | – | – |
| CNC(=O)Oc1cccc2c1OC(C)(C)O2 [Dataset S3 row 25] | 0 | 0 | 0 | – | – | – | – |
| FC(F)C(F)(F)OCC(Cn1cncn1)c1ccc(Cl)cc1Cl (stereo not drawn) [chemical 292] | – | – | – | 6 | 6 | 0 | – |
| c1ccc2[nH]c(-c3cscn3)nc2c1 [chemical 294] | – | – | – | 6 | 0 | 0 | – |
| N#C/N=C1\SCCN1Cc1ccc(Cl)nc1 [chemical 295] | – | – | – | 6 | 0 | 0 | CHR_Mouse_Liver_1_AnyLesion (Mouse Liver; [9]): 6 |
| CN(C)C(=S)SSC(=S)N(C)C [chemical 302] | – | – | – | 6 | 6 | 0 | – |

| SMILES | CHR_Rat_Liver_1_AnyLesion (Rat Liver [1]; [4]) | CHR_Rat_Liver_2_PreneoplasticLesion (Rat Liver [2]; [5]) | CHR_Rat_Liver_3_NeoplasticLesion (Rat Liver [3]; [6]) | CHR_Rat_Liver_1_AnyLesion (Rat Liver [1]; [8]) | CHR_Rat_Liver_2_PreneoplasticLesion (Rat Liver [2]; [8]) | CHR_Rat_Liver_3_NeoplasticLesion (Rat Liver [3]; [8]) | also measured |
| --- | --- | --- | --- | --- | --- | --- | --- |
| CCON=C(CC)C1=C(O)CC(c2c(C)cc(C)cc2C)CC1=O (stereo not drawn) [chemical 303] | – | – | – | 6 | 6 | 0 | – |
| COC(=O)c1ccccc1S(=O)(=O)NC(=O)N(C)c1nc(C)nc(OC)n1 [chemical 308] | – | – | – | 0 | 0 | 0 | – |
| Oc1cc(Cl)ccc1Oc1ccc(Cl)cc1Cl [chemical 312] | – | – | – | 6 | 0 | 0 | – |
| CO/N=C(/C(=O)OC)c1ccccc1CON=C(C)c1cccc(C(F)(F)F)c1 [chemical 313] | – | – | – | 0 | 0 | 0 | CHR_Mouse_Liver_1_AnyLesion (Mouse Liver; [9]): 6 |
| COc1cc(OC)nc(NC(=O)[N-]S(=O)(=O)c2ncccc2OCC(F)(F)F)n1.[Na+] [chemical 314] | – | – | – | 0 | 0 | 0 | – |
| CCCN(CCC)c1c([N+](=O)[O-])cc(C(F)(F)F)cc1[N+](=O)[O-] [chemical 316] | – | – | – | 0 | 0 | 0 | – |
| CC1(C)CCC(=Cc2ccc(Cl)cc2)C1(O)Cn1cncn1 (stereo not drawn) [chemical 318] | – | – | – | 6 | 0 | 0 | CHR_Mouse_Liver_1_AnyLesion (Mouse Liver; [9]): 6 |
| CCC(C)(NC(=O)c1cc(Cl)c(C)c(Cl)c1)C(=O)CCl (stereo not drawn) [chemical 320] | – | – | – | 0 | 0 | 0 | – |
| CNC(=O)ON=C(SC)C(=O)N(C)C [r231] | – | – | – | – | – | – | CHR_Rat_Liver_1_AnyLesion (Rat Liver [1]; rat, chronic study): 0; CHR_Rat_Liver_2_PreneoplasticLesion (Rat Liver [2]; rat, chronic study): 0; CHR_Rat_Liver_3_NeoplasticLesion (Rat Liver [3]; rat, chronic study): 0; ATG_PXRE_CIS (PXR (NR1I2); HepG2): 4.481 |
| CCCOC(=O)NCCCN(C)C.Cl [r257] | – | – | – | – | – | – | CHR_Rat_Liver_1_AnyLesion (Rat Liver [1]; rat, chronic study): 0; CHR_Rat_Liver_2_PreneoplasticLesion (Rat Liver [2]; rat, chronic study): 0; CHR_Rat_Liver_3_NeoplasticLesion (Rat Liver [3]; rat, chronic study): 0 |
| CCC(=O)Nc1ccc(Cl)c(Cl)c1 [r258] | – | – | – | – | – | – | CHR_Rat_Liver_1_AnyLesion (Rat Liver [1]; rat, chronic study): 6; CHR_Rat_Liver_2_PreneoplasticLesion (Rat Liver [2]; rat, chronic study): 6; CHR_Rat_Liver_3_NeoplasticLesion (Rat Liver [3]; rat, chronic study): 0; ATG_PXRE_CIS (PXR (NR1I2); HepG2): 4.337 |
| O=C(O)c1c(Cl)ccc2cc(Cl)cnc12 [r276] | – | – | – | – | – | – | CHR_Rat_Liver_1_AnyLesion (Rat Liver [1]; chronic study, rat liver): 0; CHR_Rat_Liver_2_PreneoplasticLesion (Rat Liver [2]; chronic study, rat liver): 0; CHR_Rat_Liver_3_NeoplasticLesion (Rat Liver [3]; chronic study, rat liver): 0 |
| CCS(=O)(=O)c1cccnc1S(=O)(=O)NC(=O)Nc1nc(OC)cc(OC)n1 [r281] | – | – | – | – | – | – | CHR_Rat_Liver_1_AnyLesion (Rat Liver [1]; chronic study, rat liver): 6; CHR_Rat_Liver_2_PreneoplasticLesion (Rat Liver [2]; chronic study, rat liver): 6; CHR_Rat_Liver_3_NeoplasticLesion (Rat Liver [3]; chronic study, rat liver): 0 |
| CNC(=O)N(C)c1nnc(C(C)(C)C)s1 [r293] | – | – | – | – | – | – | ATG_PXRE_CIS (PXR (NR1I2); HepG2 reporter): 4.357 |
| COC(=O)c1ccc(CNS(C)(=O)=O)cc1S(=O)(=O)NC(=O)Nc1nc(OC)cc(OC)n1 [row 194] | – | – | – | – | – | – | CHR_Mouse_Liver_1_AnyLesion (Mouse Liver; chronic mouse study): 6; CHR_Rat_Liver_1_AnyLesion (Rat Liver [1]; chronic rat study, liver): 0; CHR_Rat_Liver_2_PreneoplasticLesion (Rat Liver [2]; chronic rat study, liver): 0; CHR_Rat_Liver_3_NeoplasticLesion (Rat Liver [3]; chronic rat study, liver): 0 |
| CNC(=O)ON=C(C)SC [row 200] | – | – | – | – | – | – | CHR_Rat_Liver_1_AnyLesion (Rat Liver [1]; chronic rat study, liver): 0; CHR_Rat_Liver_2_PreneoplasticLesion (Rat Liver [2]; chronic rat study, liver): 0; CHR_Rat_Liver_3_NeoplasticLesion (Rat Liver [3]; chronic rat study, liver): 0 |
| COCCO [row 203] | – | – | – | – | – | – | ATG_PXRE_CIS (PXR (NR1I2); HepG2): 4.602 |
